We go through seven compounds from patent publication US8735584B2 (Merck Patent GmbH, priority 2008, dated 2014).

The structures appear in SMILES notation. Where only a bound is given, the exact number is not on record here.

For experiment [1], the target named is T1, CK1d (Homo sapiens, UniProt P48730).
T1 construct: purchased Caliper Life Sciences
The experiment in a line: Desktop Profiler kinase panel, CK1d. It is filed as biochemical. The note with it: for inhibition at 10 µM: 10 micromolar concentration of the compound, read-out: Percent Inhibition CK1d. The procedure: (§1) The Aurora assays described here are performed on two Caliper Life Sciences systems: the LC3000 and the Desktop Profiler. These provide data on enzyme activity via measurement of the relative amounts of phosphorylated or unphosphorylated fluorescently labelled substrate peptide at the end of an enzymatic reaction. These different states of peptide are resolved by applying a potential difference across the sample. The presence of the charged phosphate group on the product (as opposed to the substrate) causes a different peptide mobility between the two peptides. This is visualized by excitation of the fluorescent label on the substrate and product peptides and represented as peaks within the analysis software.
(§2) The Desktop Profiler utilizes the same principle as the LC3000 for calculating percentage conversion of a substrate to product. Caliper Life Sciences provides proprietary flash frozen pre-made 384 well plates containing selected kinases. Each column in the 384 well plate contains a particular selected kinase. A second plate, the ‘substrate plate’ contains a mix of fluorescently labeled peptide substrate and ATP. These are arranged in columns so that transfer for substrate plate to enzyme plate provides the correct enzyme with the correct substrate/ATP concentration. Compounds are added to a thawed enzyme plate in the desired format, in single concentrations. Reactions are initiated by transfer of the substrate/ATP mix from the substrate plate. The enzyme plate is incubated for 90 mins at 25 C. The reaction is stopped by addition of 70 ul of Stop Buffer (100 mM HEPES pH 7.5, 0.015% Brij-35, 10 mM EDTA (Sigma, E7889)).
(§3) Reading of the plate in the Profiler is identical to the LC3000, and the ratio between substrate and product peaks provides the activity of the enzyme in that well. This is best represented by a plate heat map which colors each well by percent inhibition as compared to positive and negative controls (no inhibitors and no ATP respectively).
(§4) In the following Tables 3a-4-b, which show the results of the desktop profiler measurements, “+” means 50-70% inhibition, “++” means 70-90% inhibition, and “+++” means >90% inhibition. The enzymes tested for profiling were ABL, AKT1, AKT2, AurA, CHK1, CHK2, CK1d, Erk1, Erk2, FYN, GSK3b, INSR, LCK, LYN, MAPKAPK2, MET, MSK1, p38a, PKA, PKCz, PKD2, PRAK, RSK1 and SRC.

The target of experiment [2] is T2, PKA (Homo sapiens, UniProt P17612).
T2 construct: purchased Caliper Life Sciences
As to the kind of experiment: Desktop Profiler kinase panel, PKA. The experiment is classed as biochemical. The note with it: 10 micromolar concentration of the compound; read-out: Percent Inhibition PKA. The procedure:
as §1, §2, §3, §4

In experiment [3] the target is T3, ABL (Homo sapiens, UniProt P00519).
T3 construct: purchased Caliper Life Sciences
The experiment in a line: Desktop Profiler kinase panel, ABL. The note with it: for inhibition at 10 µM: 10 micromolar concentration of the compound, read-out: Percent Inhibition ABL; for inhibition at 1 µM: 1 micromolar concentration of the compound. The experiment is classed as biochemical. The protocol: as §1, §2, §3, §4

In experiment [4] the target is T4, LYN (Homo sapiens, UniProt P07948).
T4 construct: purchased Caliper Life Sciences
As to the kind of experiment: Desktop Profiler kinase panel, LYN. The experiment is classed as biochemical. As to conditions: for inhibition at 10 µM: 10 micromolar concentration of the compound, read-out: Percent Inhibition LYN; for inhibition at 1 µM: 1 micromolar concentration of the compound. The procedure: as §1, §2, §3, §4

Experiment [5] has as its target T5, FYN (Homo sapiens, UniProt P06241).
T5 construct: purchased Caliper Life Sciences
As to the kind of experiment: Desktop Profiler kinase panel, FYN. The note with it: for inhibition at 10 µM: 10 micromolar concentration of the compound, read-out: Percent Inhibition FYN; for inhibition at 1 µM: 1 micromolar concentration of the compound. The experiment is classed as biochemical. The procedure:
as §1, §2, §3, §4

Experiment [6] deals with T6, SRC (Homo sapiens, UniProt P12931).
T6 construct: purchased Caliper Life Sciences
As to the kind of experiment: Desktop Profiler kinase panel, SRC. The experiment is classed as biochemical. As to conditions: for inhibition at 10 µM: 10 micromolar concentration of the compound, read-out: Percent Inhibition SRC; for inhibition at 1 µM: 1 micromolar concentration of the compound. The protocol: as §1, §2, §3, §4

In experiment [7] the target is T7, RSK1 (Homo sapiens, UniProt Q15418).
T7 construct: purchased Caliper Life Sciences
The experiment in a line: Desktop Profiler kinase panel, RSK1. The note with it: 10 micromolar concentration of the compound; read-out: Percent Inhibition RSK1. It is filed as biochemical. The procedure: as §1, §2, §3, §4

For experiment [8], the system named is tumor cells of various origins / normal human cells. As to conditions: in vitro; cited from earlier work.
Experiment [9] deals with human tumor xenograft. The note with it: human tumor xenograft model; several intermittent dosing schedules; cited from earlier work. A general note: A xenograft is tissue or cells of one species grown in another, often human tumour cells in immunodeficient mice.
Experiment [10] concerns the target T8, AurA (Homo sapiens, UniProt O14965).
T8 construct: purchased Caliper Life Sciences
T8 sequence (O14965 1-403): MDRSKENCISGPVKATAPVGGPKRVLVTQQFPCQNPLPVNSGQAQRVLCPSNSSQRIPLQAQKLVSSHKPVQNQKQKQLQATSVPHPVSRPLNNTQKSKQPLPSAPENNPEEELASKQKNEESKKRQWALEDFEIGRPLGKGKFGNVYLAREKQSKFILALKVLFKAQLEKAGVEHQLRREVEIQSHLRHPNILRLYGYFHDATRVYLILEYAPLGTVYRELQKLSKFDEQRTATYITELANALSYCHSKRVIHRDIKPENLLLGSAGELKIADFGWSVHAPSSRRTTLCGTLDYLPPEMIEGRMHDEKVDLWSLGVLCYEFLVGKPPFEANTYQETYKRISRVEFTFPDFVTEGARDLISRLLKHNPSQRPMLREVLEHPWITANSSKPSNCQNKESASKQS
As to the kind of experiment: Desktop Profiler kinase panel, AurA. The experiment is classed as biochemical. The note with it: for inhibition at 10 µM: 10 micromolar concentration of the compound, read-out: Percent Inhibition AurA. The protocol:
as §1, §2, §3, §4

Experiment [11] has as its target T9, PKD2 (Homo sapiens, UniProt Q9BZL6).
T9 construct: purchased Caliper Life Sciences
T9 sequence (Q9BZL6 1-878): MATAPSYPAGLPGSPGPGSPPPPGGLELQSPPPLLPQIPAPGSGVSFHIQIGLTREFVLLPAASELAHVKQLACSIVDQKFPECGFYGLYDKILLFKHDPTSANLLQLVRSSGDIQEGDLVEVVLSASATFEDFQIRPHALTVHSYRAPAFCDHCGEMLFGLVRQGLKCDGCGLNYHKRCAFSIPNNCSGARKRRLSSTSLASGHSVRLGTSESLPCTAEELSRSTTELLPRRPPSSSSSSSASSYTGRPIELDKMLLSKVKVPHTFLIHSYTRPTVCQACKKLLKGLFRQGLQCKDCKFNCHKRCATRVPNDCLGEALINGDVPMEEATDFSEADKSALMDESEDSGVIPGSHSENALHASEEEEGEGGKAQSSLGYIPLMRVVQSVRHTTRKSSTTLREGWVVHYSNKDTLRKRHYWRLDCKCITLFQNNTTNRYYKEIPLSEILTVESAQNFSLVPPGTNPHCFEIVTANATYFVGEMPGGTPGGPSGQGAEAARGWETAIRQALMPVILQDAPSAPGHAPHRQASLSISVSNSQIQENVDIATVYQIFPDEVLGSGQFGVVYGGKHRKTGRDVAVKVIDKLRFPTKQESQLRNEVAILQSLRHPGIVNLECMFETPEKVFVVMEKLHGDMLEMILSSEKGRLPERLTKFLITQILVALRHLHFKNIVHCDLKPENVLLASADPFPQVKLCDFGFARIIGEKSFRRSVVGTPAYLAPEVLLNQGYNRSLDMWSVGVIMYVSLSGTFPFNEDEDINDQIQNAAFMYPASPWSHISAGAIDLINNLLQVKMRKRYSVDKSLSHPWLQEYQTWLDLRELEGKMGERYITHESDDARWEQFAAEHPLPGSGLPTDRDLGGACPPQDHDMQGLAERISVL
The experiment in a line: Desktop Profiler kinase panel, PKD2. The note with it: 10 micromolar concentration of the compound; read-out: Percent Inhibition PKD2. The experiment is classed as biochemical. The procedure: as §1, §2, §3, §4

Experiment [12] relates to leukemia, colon and pancreatic tumors. As to conditions: variety of in vivo xenograft models; well-tolerated doses; cited from earlier work.
In experiment [13] the target is T10, GSK3b (Homo sapiens, UniProt P49841).
T10 construct: purchased Caliper Life Sciences
The experiment in a line: Desktop Profiler kinase panel, GSK3b. The experiment is classed as biochemical. The note with it: 10 micromolar concentration of the compound; read-out: Percent Inhibition GSK3b. The procedure:
as §1, §2, §3, §4

Experiment [14] deals with T11, AKT2 (Homo sapiens, UniProt P31751).
T11 construct: purchased Caliper Life Sciences
As to the kind of experiment: Desktop Profiler kinase panel, AKT2. The note with it: 10 micromolar concentration of the compound; read-out: Percent Inhibition AKT2. It is filed as biochemical. The procedure: as §1, §2, §3, §4

The target in experiment [15] is T12, CHK2 (Homo sapiens, UniProt O96017).
T12 construct: purchased Caliper Life Sciences
The experiment in a line: Desktop Profiler kinase panel, CHK2. It is filed as biochemical. The note with it: for inhibition at 10 µM: 10 micromolar concentration of the compound, read-out: Percent Inhibition CHK2. The procedure:
as §1, §2, §3, §4

For experiment [16], the target named is T13, p38a (Homo sapiens, UniProt Q16539).
T13 construct: purchased Caliper Life Sciences
The experiment in a line: Desktop Profiler kinase panel, p38a. The note with it: 1 micromolar concentration of the compound. The experiment is classed as biochemical. The protocol: as §1
The Desktop Profiler utilizes the same principle as the LC3000 for calculating percentage conversion of a substrate to product. Caliper Life Sciences provides proprietary flash frozen pre-made 384 well plates containing selected kinases. Each column in the 384 well plate contains a particular selected kinase. A second plate, the ‘substrate plate’ contains a mix of fluorescently labeled peptide substrate and ATP. […]
Reading of the plate in the Profiler is identical to the LC3000, and the ratio between substrate and product peaks provides the activity of the enzyme in that well. […]

Experiment [17] deals with T14, LCK (Homo sapiens, UniProt P06239).
T14 construct: purchased Caliper Life Sciences
As to the kind of experiment: Desktop Profiler kinase panel, LCK. It is filed as biochemical. The protocol:
as §1, §2, §3, §4

[18] abbreviates: 1 micromolar concentration of the compound.

T1 sequence (P48730 whole entry): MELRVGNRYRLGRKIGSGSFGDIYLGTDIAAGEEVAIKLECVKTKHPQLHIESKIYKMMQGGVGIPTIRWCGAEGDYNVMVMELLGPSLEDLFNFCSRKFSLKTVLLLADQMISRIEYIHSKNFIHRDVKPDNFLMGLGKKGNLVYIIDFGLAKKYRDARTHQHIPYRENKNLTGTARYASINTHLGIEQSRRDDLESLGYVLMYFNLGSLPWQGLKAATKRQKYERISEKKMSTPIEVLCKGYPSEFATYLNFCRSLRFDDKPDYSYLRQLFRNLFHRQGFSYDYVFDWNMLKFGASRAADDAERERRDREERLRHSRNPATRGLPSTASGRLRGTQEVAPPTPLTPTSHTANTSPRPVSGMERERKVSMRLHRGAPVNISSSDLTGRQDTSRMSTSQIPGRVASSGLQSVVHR
T5 sequence (P06241 whole entry, species assumed): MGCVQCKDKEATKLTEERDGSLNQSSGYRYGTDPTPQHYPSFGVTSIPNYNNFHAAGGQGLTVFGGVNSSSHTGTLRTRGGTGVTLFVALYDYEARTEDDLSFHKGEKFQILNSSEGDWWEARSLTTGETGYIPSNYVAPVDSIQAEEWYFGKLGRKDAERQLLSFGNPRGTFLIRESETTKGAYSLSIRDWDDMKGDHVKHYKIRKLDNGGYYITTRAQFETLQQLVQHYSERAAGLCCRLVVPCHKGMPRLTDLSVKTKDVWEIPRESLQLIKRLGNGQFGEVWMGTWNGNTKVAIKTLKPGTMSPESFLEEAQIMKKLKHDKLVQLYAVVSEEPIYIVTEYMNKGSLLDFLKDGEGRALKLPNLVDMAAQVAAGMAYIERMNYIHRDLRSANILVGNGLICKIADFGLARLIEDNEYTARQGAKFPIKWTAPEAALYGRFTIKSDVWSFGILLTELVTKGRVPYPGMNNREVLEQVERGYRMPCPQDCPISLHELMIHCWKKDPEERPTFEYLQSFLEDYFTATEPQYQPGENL
T12 sequence (O96017 whole entry, species assumed): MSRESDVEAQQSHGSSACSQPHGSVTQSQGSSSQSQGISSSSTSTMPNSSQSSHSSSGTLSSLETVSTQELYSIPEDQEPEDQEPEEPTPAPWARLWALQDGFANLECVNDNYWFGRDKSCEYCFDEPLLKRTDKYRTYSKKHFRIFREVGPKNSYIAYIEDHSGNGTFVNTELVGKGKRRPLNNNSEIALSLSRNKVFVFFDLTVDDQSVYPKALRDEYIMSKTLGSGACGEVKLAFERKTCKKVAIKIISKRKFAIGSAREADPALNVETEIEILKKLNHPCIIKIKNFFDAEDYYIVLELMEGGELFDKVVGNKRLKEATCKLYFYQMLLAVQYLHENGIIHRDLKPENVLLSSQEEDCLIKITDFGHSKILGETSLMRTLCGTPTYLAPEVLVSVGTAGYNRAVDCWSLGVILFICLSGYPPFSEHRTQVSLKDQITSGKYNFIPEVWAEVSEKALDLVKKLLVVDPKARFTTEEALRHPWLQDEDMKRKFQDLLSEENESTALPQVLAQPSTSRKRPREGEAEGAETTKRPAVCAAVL
T4 sequence (P07948 whole entry, species assumed): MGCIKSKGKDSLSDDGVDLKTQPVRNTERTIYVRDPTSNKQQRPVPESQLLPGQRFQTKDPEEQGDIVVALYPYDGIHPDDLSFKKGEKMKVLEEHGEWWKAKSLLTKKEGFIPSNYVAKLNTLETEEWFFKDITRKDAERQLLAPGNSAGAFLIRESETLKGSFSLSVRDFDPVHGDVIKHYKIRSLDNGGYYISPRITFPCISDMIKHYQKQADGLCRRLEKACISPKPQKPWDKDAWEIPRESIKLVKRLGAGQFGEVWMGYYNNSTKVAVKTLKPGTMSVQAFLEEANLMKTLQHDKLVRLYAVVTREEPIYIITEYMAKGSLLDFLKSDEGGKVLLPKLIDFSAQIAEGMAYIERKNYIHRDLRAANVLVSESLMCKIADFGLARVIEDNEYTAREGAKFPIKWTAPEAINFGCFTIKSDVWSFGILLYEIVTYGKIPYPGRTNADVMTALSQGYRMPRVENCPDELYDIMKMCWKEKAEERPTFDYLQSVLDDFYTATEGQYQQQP
T3 sequence (P00519 whole entry, species assumed): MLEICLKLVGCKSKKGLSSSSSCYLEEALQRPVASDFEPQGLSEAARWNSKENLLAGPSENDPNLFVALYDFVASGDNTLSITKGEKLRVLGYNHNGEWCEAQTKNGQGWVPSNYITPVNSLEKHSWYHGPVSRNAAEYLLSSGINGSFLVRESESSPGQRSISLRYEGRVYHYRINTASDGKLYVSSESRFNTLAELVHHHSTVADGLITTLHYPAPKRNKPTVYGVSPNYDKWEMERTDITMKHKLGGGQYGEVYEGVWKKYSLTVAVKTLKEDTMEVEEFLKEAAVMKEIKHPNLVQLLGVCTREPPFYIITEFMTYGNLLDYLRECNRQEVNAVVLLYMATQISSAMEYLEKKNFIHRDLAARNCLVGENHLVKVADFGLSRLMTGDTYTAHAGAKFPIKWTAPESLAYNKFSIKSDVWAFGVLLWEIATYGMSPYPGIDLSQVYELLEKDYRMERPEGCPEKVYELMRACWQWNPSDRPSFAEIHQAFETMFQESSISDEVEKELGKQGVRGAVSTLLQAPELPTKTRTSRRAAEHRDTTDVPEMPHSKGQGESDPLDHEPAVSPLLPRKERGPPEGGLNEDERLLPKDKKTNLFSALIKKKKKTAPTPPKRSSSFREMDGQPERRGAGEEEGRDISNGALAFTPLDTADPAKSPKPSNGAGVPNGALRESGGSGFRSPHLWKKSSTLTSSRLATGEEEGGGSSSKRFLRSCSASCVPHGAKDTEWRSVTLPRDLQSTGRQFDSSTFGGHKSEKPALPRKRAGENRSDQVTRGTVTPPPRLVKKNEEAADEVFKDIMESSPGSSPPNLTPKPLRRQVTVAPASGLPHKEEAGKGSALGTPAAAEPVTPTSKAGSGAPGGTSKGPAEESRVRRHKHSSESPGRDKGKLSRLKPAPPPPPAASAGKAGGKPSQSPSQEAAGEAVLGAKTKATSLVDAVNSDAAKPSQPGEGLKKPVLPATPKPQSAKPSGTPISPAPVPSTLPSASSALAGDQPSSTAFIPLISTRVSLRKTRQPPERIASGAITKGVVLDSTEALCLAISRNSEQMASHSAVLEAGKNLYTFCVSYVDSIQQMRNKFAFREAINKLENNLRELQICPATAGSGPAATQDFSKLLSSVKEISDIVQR
T6 sequence (P12931 whole entry, species assumed): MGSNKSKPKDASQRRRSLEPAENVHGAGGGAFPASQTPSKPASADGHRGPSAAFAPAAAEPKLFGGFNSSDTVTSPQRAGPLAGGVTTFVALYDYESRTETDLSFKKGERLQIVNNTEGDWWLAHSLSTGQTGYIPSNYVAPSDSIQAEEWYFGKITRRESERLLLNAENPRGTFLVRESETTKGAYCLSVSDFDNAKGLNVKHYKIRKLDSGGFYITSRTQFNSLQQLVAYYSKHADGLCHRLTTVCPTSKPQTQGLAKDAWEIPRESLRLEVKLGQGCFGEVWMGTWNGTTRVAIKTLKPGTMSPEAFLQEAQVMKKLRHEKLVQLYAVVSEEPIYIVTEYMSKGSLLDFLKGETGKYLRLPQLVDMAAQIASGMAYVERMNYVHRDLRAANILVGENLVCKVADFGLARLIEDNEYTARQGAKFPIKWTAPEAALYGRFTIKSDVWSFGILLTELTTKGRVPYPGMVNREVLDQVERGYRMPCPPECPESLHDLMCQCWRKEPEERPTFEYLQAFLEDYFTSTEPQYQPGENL
T14 sequence (P06239 whole entry, species assumed): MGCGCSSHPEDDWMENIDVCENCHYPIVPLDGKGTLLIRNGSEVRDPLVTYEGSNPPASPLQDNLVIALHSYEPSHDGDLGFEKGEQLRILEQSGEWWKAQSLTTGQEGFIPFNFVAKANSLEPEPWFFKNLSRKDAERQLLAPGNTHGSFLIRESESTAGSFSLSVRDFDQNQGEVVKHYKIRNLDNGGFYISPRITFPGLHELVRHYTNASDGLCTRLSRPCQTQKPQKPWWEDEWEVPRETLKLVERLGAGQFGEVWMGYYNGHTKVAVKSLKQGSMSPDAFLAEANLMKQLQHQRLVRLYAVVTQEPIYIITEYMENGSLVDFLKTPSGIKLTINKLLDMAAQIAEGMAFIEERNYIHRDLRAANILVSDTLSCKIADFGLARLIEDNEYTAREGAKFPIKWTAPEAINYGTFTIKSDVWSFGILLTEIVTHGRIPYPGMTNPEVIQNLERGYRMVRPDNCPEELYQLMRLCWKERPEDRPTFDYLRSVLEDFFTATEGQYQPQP
T10 sequence (P49841 whole entry, species assumed): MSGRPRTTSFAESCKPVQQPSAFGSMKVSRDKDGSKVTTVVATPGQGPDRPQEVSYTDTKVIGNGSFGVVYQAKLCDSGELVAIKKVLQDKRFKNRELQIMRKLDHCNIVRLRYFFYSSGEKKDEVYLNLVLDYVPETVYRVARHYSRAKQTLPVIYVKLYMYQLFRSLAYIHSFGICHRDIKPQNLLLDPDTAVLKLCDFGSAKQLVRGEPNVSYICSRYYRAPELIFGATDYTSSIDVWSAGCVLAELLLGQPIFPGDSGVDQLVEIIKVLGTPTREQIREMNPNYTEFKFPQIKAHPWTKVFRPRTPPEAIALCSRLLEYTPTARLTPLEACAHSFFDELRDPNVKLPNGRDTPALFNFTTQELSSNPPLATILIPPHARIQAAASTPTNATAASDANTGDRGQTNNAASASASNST
T13 sequence (Q16539 whole entry): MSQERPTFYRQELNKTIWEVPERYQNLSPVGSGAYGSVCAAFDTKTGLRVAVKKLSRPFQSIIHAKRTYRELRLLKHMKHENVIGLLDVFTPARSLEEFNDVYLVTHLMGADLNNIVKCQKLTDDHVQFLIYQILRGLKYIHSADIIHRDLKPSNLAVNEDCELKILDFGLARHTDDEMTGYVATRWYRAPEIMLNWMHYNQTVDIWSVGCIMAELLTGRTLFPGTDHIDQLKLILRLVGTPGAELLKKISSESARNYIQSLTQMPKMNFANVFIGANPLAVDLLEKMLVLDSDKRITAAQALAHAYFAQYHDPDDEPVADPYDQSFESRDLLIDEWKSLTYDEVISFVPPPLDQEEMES

As to `O=c1[nH]c2nccc(Cl)c2c2ccccc12` [Example 83, 1-Chloro-5H-benzo[c][1,8]naphthyridin-6-one], the inhibition at 10 µM in experiment [1] and in experiment [2] was 50 to 70% throughout.

For the compound `Clc1nc2nccc(NCc3ccccc3)c2c2ccccc12` [Example 103, Benzyl-(6-chloro-benzo[c][1,8]naphthyridin-1-yl)-amine], the inhibition (usually the percentage by which the read-out fell short of the control) at 10 µM was 70 to 90% in experiment [3]; 70 to 90% in experiment [4]; 70 to 90% in [5]; 70 to 90% in experiment [6]; 50 to 70% in experiment [7].

For `Nc1nc(Nc2ccc(S(N)(=O)=O)cc2)nn1C(=O)c1c(F)cccc1F` [JNJ-7706621], in experiment [8], the “less effective at inhibiting normal human cell growth than tumor cell proliferation” value is given as “about 10 fold”. The antitumor activity result in experiment [9] is given as “significant antitumor activity”.

Turning to `COc1cccc(CNc2ccnc3[nH]c(=O)c4ccccc4c23)c1` [Example 98, 1-(3-Methoxy-benzylamino)-5H-benzo[c][1,8]naphthyridin-6-one], the inhibition at 10 µM in experiment [10], in experiment [11], in experiment [4] and in [5] was 50 to 70% throughout.

Take `Cc1cc(Nc2cc(N3CCN(C)CC3)nc(Sc3ccc(NC(=O)C4CC4)cc3)n2)n[nH]1` [VX-680]: the “inhibition of tumor growth” value in experiment [12] is “profound inhibition of tumor growth”.

As for `O=c1[nH]c2nccc(NCc3ccccc3)c2c2ccccc12` [Example 96, 1-Benzylamino-5H-benzo[c][1,8]naphthyridin-6-one], the inhibition at 10 µM in [10] was in the range of 70 to 90%; in experiment [1], 50 to 70%; in experiment [11], 50 to 70%; in experiment [13], 50 to 70%; in [3], 70 to 90%; in experiment [4] it was 70 to 90%. The inhibition at 10 µM in experiment [5] was 70 to 90%; in [6], 50 to 70%; in experiment [14] it was 50 to 70%; in [15], 50 to 70%. The inhibition at 1 µM in experiment [1] (setting [18]) fell in the range of 50 to 70%; in experiment [3], 70 to 90%; in experiment [4], 70 to 90%; in experiment [5], 70 to 90%; in [6] it was 50 to 70%; in experiment [16], 50 to 70%.

For the compound `COc1ccc(Nc2ccnc3[nH]c(=O)c4ccccc4c23)cc1` [Example 113, 1-(4-Methoxy-phenylamino)-5H-benzo[c][1,8]naphthyridin-6-one], the inhibition at 1 µM was 50 to 70% in experiment [10] (setting [18]); 50 to 70% in experiment [3]; 70 to 90% in [4]; 70 to 90% in experiment [5]; 70 to 90% in [6]; 50 to 70% in experiment [17] (setting [18]). In experiment [15] (setting [18]), this compound came in with an inhibition at 1 µM of 50 to 70%. In addition, the inhibition at 10 µM in experiment [10] was 70 to 90%; in experiment [3] it was 70 to 90%; in experiment [4], greater than 90%; in experiment [6] it was 70 to 90%; in [2], 50 to 70%; in experiment [17] (10 micromolar concentration of the compound, read-out: Percent Inhibition LCK) it was 70 to 90%. Moreover, in [15], the inhibition at 10 µM was in the range of 70 to 90%.
